Reference: ChEMBL document CHEMBL3745677, “Discovery of 6-(4-{[5-Cyclopropyl-3-(2,6-dichlorophenyl)isoxazol-4-yl]methoxy}piperidin-1-yl)-1-methyl-1H-indole-3-carboxylic Acid: A Novel FXR Agonist for the Treatment of Dyslipidemia” (J Med Chem, 2015)

What was measured:
Type in all cases: functional, Zucker
Rattus norvegicus [1] = assay: Antidyslipidemic activity in ZDF rat assessed as LDL/IgHDL level at 0.3 mg/kg for 9 days by FPLC analysis (reference value: 17.8 mg/dL)
Rattus norvegicus [2] = assay: Antidyslipidemic activity in ZDF rat assessed as HDL level at 0.3 mg/kg for 9 days by FPLC analysis (reference value: 48.3 mg/dL)
Rattus norvegicus [3] = assay: Antidyslipidemic activity in ZDF rat assessed as VLDL level at 0.3 mg/kg for 9 days by FPLC analysis (reference value: 35 mg/dL)

## CN(CCOc1ccc(CC2SC(=O)NC2=O)cc1)c1ccccn1 (stereo not drawn) [ROSIGLITAZONE]
Rattus norvegicus [1]
  Activity: 19 mg/dL
Rattus norvegicus [2]
  Activity: 61.3 mg/dL
Rattus norvegicus [3]
  Activity: 26.3 mg/dL
